Measurements published in patent US20250205300A1, “PLANT-BASED COMPOSITIONS AND METHODS FOR HORMONE SIGNALING, BLOOD GLUCOSE CONTROL, APPETITE CONTROL, AND WEIGHT MANAGEMENT” (Alpine Biotech, LLC, priority 2023, published 2025).

Tests used:
Human NCI-H716 cells = assay: Secretion of GLP-1 in Human NCI-H716 cells (FIG. 1); format: cell-based
Description: FIG. 1 is a graph illustrating the effects of compositions in Human NCI-H716 cells according to an implementation.

[1] = tested on: preclinical diabetes model; assay: Plasma GLP-1 levels in preclinical diabetes model (FIG. 2); format: in vivo

| Compound | secretion of GLP-1 (Human NCI-H716 cells) | plasma GLP-1 levels [1] |
| --- | --- | --- |
| COc1ccc2cc3[n+](cc2c1OC)CCc1cc2c(cc1-3)OCO2 [Berberine] | modulate the secretion of GLP-1 to various degrees | modulate plasmas GLP-1 levels |
| O=C(O[C@@H]1Cc2c(O)cc(O)cc2O[C@@H]1c1cc(O)c(O)c(O)c1)c1cc(O)c(O)c(O)c1 [epigallocatechin gallate] | modulate the secretion of GLP-1 to various degrees |  |
| CC/C=C\C/C=C\C/C=C\CCCCCCCC(=O)O [α-linolenic acid] | modulate the secretion of GLP-1 to various degrees | modulate plasmas GLP-1 levels |
